Data published in US9738670B2, “Pentaaza macrocyclic ring complexes possessing oral bioavailability” (Galera Labs, LLC, priority 2015, dated 2017).

Assay: Intraduodenal (id) bioavailability screen in minipigs, oil formulations, vs iv parent dichloro complex
Type: in vivo, Gottingen minipig
Conditions: id 10 mg/kg, 10% by weight formulation, AUC0->24 h vs iv 1 mg/kg parent chloro complex
Procedure: Compounds were screened for oral bioavailability by injecting the formulated prodrugs directly into the duodenum (intraduodenal or id administration) of the minipig test subjects, thus bypassing the acidic environment of the stomach and thereby eliminating potentially misleading oral bioavailability results that could arise from alteration of the test article drug in the acid environment of the stomach.
The studies were conducted at Xenometrics LLC (Stillwell, Kans.) and the Id bioavailability was determined using various axial ligand derivative complexes of GC4419, GC4444, GC4403 and GC4401.
*Where the iv dose is 1 mg of test article drug per kilogram body weight of the mini-pig, and the dose administered id is 10 mg of test article drug per kg body weight of the mini-pig.
Male Gottingen minipigs (4-5 mo old, 9-12 kg weight) were purchased from Marshall BioResources and housed at Xenometrics. […] The distal end was exteriorized with a reusable accessible hub (see surgical details below). During a recovery period of at least 2 weeks the minipigs were handled daily to acclimate them to the test procedures, i.e., id dosing and blood collections. For each experiment, each minipig received a test article drug dissolved or suspended in an excipient vehicle. […] All dosing experiments were conducted in fasted animals. Food was withdrawn from the minipigs 16 hours before dosing. The minipigs had ad libitum access to water. Dosed minipigs were allowed access to food 6 hour after dosing. The test article was administered at a dose of 10 mg/kg parent drug in 0.1 m L/kg vehicle (e.g., 1.5 mL in 15 kg minipig) as a bolus injection (˜1 minute) via the id cannula. The actual amount of total test article drug administered varied with the formula weight of the prodrug. An equal volume of excipient vehicle was used to flush the cannula after the test article was administered. Approximately 6 hours later, corn oil was used to flush the cannula. After approximately 24 hours post-dose, the catheter was flushed with sterile saline solution and capped. At the following time-points 0.25, 0.5, 1, 2, 4, 8, 24 and 48 hour post-injection, 2 mL blood samples were collected by cranial vena cava puncture (4 mL Sodium heparin Vacutainer, 20 g 1.5″ needle) after the skin surface was wiped with ethanol. The minipig was placed in a sling in a recumbent position without anesthesia for the collection of blood samples. The minipigs were never used more than once per 7 days for experimentation. The blood samples were kept on ice until processed for plasma. Blood samples were centrifuged at 1200×g for ten minutes at 4° C. and plasma samples were transferred to 96 well plate tubes, capped and stored at −20° C. until shipment on dry ice to the analytical laboratory used for measuring the concentration of drug in the plasma. The concentration of the parent manganese pentaaza macrocylic ring complex (independent of the composition of the axial ligands) was measured in plasma using a validated HPLC/MS/MS method that is linear between 50 ng/mL and 20,000 ng/mL.
The oils used for preparing the dosing solutions were used as supplied from commercial sources. The Capmul MCM (NF) is a mixture of mono/diglycerides of caprylic/capric acids and was supplied by ABITEC Corporation, Janesville, Wis. The Miglyol 812 N is a mixture of caprylic/capric acid triglycerides and was supplied by Cremer Oleo Division, Eatontown, N.J. Labrafil M 2125 CS (NF) is chemically defined to be linoleoyl polyoxyl-6 glycerides NF and was supplied by Gattefosse, SAINT-PRIEST Cedex, France. Peceol is chemically defined to be the monoglyceride, glyceryl monooleate NF, and was supplied by Gattefosse, SAINT-PRIEST Cedex, France. Maisine 35-1 is chemically defined to be the monoglyceride glyceryl monolinoleate (NF) and was supplied by Gattefosse, SAINT-PRIEST Cedex, France. Labrasol (NF) is chemically defined to be caprylocaproyl polyoxyl-8 glycerides NF and was supplied by Gattefosse, SAINT-PRIEST Cedex, France. […]

Molecule | Mini-Pig BioA (base oil Capmul MCM) [%] | Mini-Pig BioA (base oil Maisine 35-1) [%] | Mini-Pig BioA (base oil Peceol) [%] | also measured
Manganese(II)bis-L--valinato[(4aS,13aS,17aS,21aS)-1,2,3,4,4a,5,6,12,13,13a,14,15,16,17,17a,18,19,20,21,21a- Eicosahydro-11,7-nitrilo-7H-dibenzo[b,h][1,4,7,10] tetraazacyclo-heptadecine-KN5, KN13, KN18, KN21, KN22]- [GC4746] | 13 |  |  | 
Manganese(II)bis-pivaloato[(4aS,13aS,17aS,21aS)-1,2,3,4,4a,5,6,12,13,13a,14,15,16,17, 17a,18,19,20,21,21a-Eicosahydro-11,7-nitrilo-7H-dibenzo[b,h][1,4,7,10] tetraazacycloheptadecine-KN5, KN13, KN18, KN21, KN22]- [GC4709] | 17 |  |  | Mini-Pig BioA (base oil Labrafil M2125 CS): 22%
Manganese(II)bis-racemic-phenylglycinato[(4aR,13aR,17aR,21aR)-1,2,3,4,4a,5,6,12,13,13a,14,15,16,17,17a,18,19,20,21,21a-Eicosahydro-11,7-nitrilo-7H-dibenzo[b,h][1,4,7,10] tetraazacycloheptadecine-KN5, KN13, KN18, KN21, KN22]- [GC4717] | 26 |  |  | 
Manganese(II)bis-n-Butyrato[(4aS,13aS,17aS,21aS)-1,2,3,4,4a,5,6,12,13,13a,14,15,16,17,17a,18,19,20,21,21a-Eicosahydro-11,7-nitrilo-7H-dibenzo[b,h][1,4,7,10] tetraazacycloheptadecine-KN5, KN13, KN18, KN21, KN22]- [GC4713] |  |  | 18 | Mini-Pig BioA (base oil Labrafil M2125 CS): 21%
Manganese(II)bis-L-phenylalaninato[(4aS,13aS,17aS,21aS)-1,2,3,4,4a,5,6,12,13,13a,14,15,16,17,17a,18,19,20,21,21a-Eicosahydro-11,7-nitrilo-7H-dibenzo[b,h][1,4,7,10] tetraazacyclo-heptadecine-KN5, KN13, KN18, KN21, KN22]- [GC4704] | 10 |  |  | 
Manganese(II)bis-racemic-phenylglycinato[2S, 21S-Dimethyl(4aR,13aR,17aR,21aR)-1,2,3,4,4a,5,6,12,13,13a,14,15,16,17,17a,18,19,20,21,21a-Eicosahydro-11,7-nitrilo-7H-dibenzo[b,h][1,4,7,10] tetraazacycloheptadecine-KN5, KN13, KN18, KN21, KN22]- [GC4715] | 36 |  |  | 
Manganese(II)bis-racemic-phenylglycinato[6R-Methyl(4aR,13aR,17aR,21aR)-1,2,3,4,4a,5,6,12,13,13a,14,15,16,17,17a,18,19,20,21,21a-Eicosahydro-11,7-nitrilo-7H-dibenzo[b,h][1,4,7,10] tetraazacycloheptadecine-KN5, KN13, KN18, KN21, KN22]- [GC4716] | 34 |  |  | 
Manganese(II)bis-Benzoato[(4aS,13aS,17aS,21aS)-1,2,3,4,4a,5,6,12,13,13a,14,15,16,17,17a,18,19,20,21,21a-Eicosahydro-11,7-nitrilo-7H-dibenzo[b,h][1,4,7,10] tetraazacycloheptadecine-KN5, KN13, KN18, KN21, KN22]- [GC4712] | 24 | 18 | 29 | 
Manganese(II)bis-rac-Mandelato[(4aS,13aS,17aS,21aS)-1,2,3,4,4a,5,6,12,13,13a,14,15,16,17,17a,18,19,20,21,21a-Eicosahydro-11,7-nitrilo-7H-dibenzo[b,h][1,4,7,10] tetraazacycloheptadecine-KN5, KN13, KN18, KN21, KN22]- [GC4706] | 28 |  |  | 
Manganese(II)bis-racemic-phenylglycinato[(4aS,13aS,17aS,21aS)-1,2,3,4,4a,5,6,12,13,13a,14,15,16,17,17a,18,19,20,21,21a-Eicosahydro-11,7-nitrilo-7H-dibenzo[b,h][1,4,7,10] tetraazacycloheptadecine-KN5, KN13, KN18, KN21, KN22]- [GC4720] | 33 |  |  | Mini-Pig BioA (base oil Miglyol 812N): 32%
Manganese(II)bis-racemic-2-phenylpropionato[(4aS,13aS,17aS,21aS)-1,2,3,4,4a,5,6,12,13,13a,14,15,16,17,17a,18,19,20,21,21a-Eicosahydro-11,7-nitrilo-7H-dibenzo[b,h][1,4,7,10] tetraazacycloheptadecine-KN5, KN13, KN18, KN21, KN22]- [GC4705] | 23 |  | 24 | 

More lines, main results first:

Mini-Pig BioA (base oil Capmul MCM) [%] | Mini-Pig BioA (base oil Maisine 35-1) [%] | Mini-Pig BioA (base oil Peceol) [%] | Molecule | also measured
15 | 8 | 11 | Manganese(II)bis-acetato[(4aS,13aS,17aS,21aS)-1,2,3,4,4a,5,6,12,13,13a,14,15,16,17, 17a,18,19,20,21,21a-Eicosahydro-11,7-nitrilo-7H-dibenzo[b,h][1,4,7,10] tetraazacycloheptadecine-KN5,KN13,KN18,KN21,KN22]- [GC4701] | Mini-Pig BioA (base oil Labrafil M2125 CS): 16%
25 | 31 | 28 | Manganese(II)bis-phenylglyoxaloto[(4aS,13aS,17aS,21aS)-1,2,3,4,4a,5,6,12,13,13a,14, 15,16,17,17a,18,19,20,21,21a-Eicosahydro-11,7-nitrilo-7H-dibenzo[b,h][1,4,7,10] tetraazacyclohepta-decine-KN5, KN13, KN18, KN21, KN22]- [GC4719] | 
12 |  |  | Manganese(II)bis-dodecanoato[(4aS,13aS,17aS,21aS)-1,2,3,4,4a,5,6,12,13, 13a,14,15,16,17,17a,18,19,20,21,21a-Eicosahydro-11,7-nitrilo-7H-dibenzo[b,h][1,4,7,10] tetraazacycloheptadecine-KN5, KN13, KN18, KN21, KN22]- [GC4708] | 
13 | 8 |  | Manganese(II)bis-octanoato[(4aS,13aS,17aS,21aS)-1,2,3,4,4a,5,6,12,13,13a,14,15,16, 17,17a,18,19,20,21,21a-Eicosahydro-11,7-nitrilo-7H-dibenzo[b,h][1,4,7,10] tetraazacycloheptadecine-KN5, KN13, KN18, KN21, KN22]- [GC4710] | Mini-Pig BioA (base oil Labrafil M2125 CS): 21%
27 | 29 | 29 | Manganese(II)bis-propionato[(4aS,13aS,17aS,21aS)-1,2,3,4,4a,5,6,12,13,13a,14,15,16, 17,17a,18,19,20,21,21a-Eicosahydro-11,7-nitrilo-7H-dibenzo[b,h][1,4,7,10] tetraaza-cycloheptadecine-KN5, KN13, KN18, KN21, KN22]- [GC4711] | Mini-Pig BioA (base oil Labrafil M1944 CS): 23%; Mini-Pig BioA (base oil Labrafil M2125 CS): 44%
32 | 28 |  | Manganese(II)bis-phenylacetato[(4aS,13aS,17aS,21aS)-1,2,3,4,4a,5,6,12,13,13a,14, 15,16,17,17a,18,19,20,21,21a-Eicosahydro-11,7-nitrilo-7H-dibenzo[b,h][1,4,7,10] tetraazacyclo-heptadecine-KN5, KN13, KN18, KN21, KN22]- [GC4718] | 
14 |  |  | C[C@@H]1CN[C@@H]2CCCC[C@H]2NCc2cccc(n2)CN[C@@H]2CCCC[C@H]2N1.[Cl][Mn][Cl] [GC4444, reference compound] | 
